Experimental data published in patent US9273095B2, “Antibiotic peptide and preparation method therefor and application therefor” (priority 2011, dated 2016).
In brackets after ≈: the same amount, converted by molar mass. Like-named read-outs stand apart in the source and are kept apart here. Non-standard residues stand in square brackets, D forms with d. Residues, ends and D or L forms follow the SMILES beside them.

Legend:
[1] = tested on: Enterococcus faecium; test: microbe, parasite or virus in culture; type: cell-based
Procedure: The experimental strains are 37 standard strains preserved in lab and clinical isolated bacteria, including drug-resistant bacteria and quality-control bacteria selecting Staphylococcus aureus ATCC29213, Enterococcus faecalis ATCC29212, Escherichia coli ATCC25922, Pseudomonas aeruginosa ATCC27853 and klebsiella pneumoniae ATCC700603.
(1) Sensitivity test is conducted with two-fold agar dilution method and Denlay multipoint inoculator. Test bacteria are cultured with nutrient broth and brain heart infusion.
(2) The drug is double diluted into different concentration with MH broth after dissolved and then placed in the plate respectively.
(4) After solidification of the culture medium in the plate, test bacteria (10^4CFU/point) are inoculated by multipoint inoculator and cultured for 18 hours at constant 35° C. Then observe the results.

[2] = tested on: candida krusei; test: microbe, parasite or virus in culture; type: cell-based
Text: • (1) Test strains: monilia albicans (candida albicans), candida glabrata, candida krusei, candida tropicalis, aspergillus fumigatus and flavous. (2) Quality control strains: candida krusei JLC30366 (ATCC6258). Antimicrobial peptides PL-13 (SEQ ID NO: 1) under test are supplied by Jiangsu ProteLight Pharmaceutical & Biotechnology Co., LTD. […] (1) The bacterial strains which preserved on PDA slant are respectively inoculated onto PDA plate and slant medium. Activation of bacterial strains is conducted at a humidity level of 60% and 25° C. (for aspergillus) or 37° C. (for candida). (2) 0.9% stroke-physiological saline solution comprising 0.5% Tween-80 is used to prepare bacterial suspension for experiment. Hemocytometer is utilized to adjust concentration of the bacterial suspension to 1-3×10^6 CFU/ml (0.5 McFarland units) to make stock solution in reserve at -20° C. During the sensitivity test, the RPMI-1640 liquid medium is diluted 1000 times to 1-3×10^3 CFU/ml. (3) The RPMI-1640 liquid is utilized as diluent to 10-fold dilute stock solution of peptides. […] The eleventh orifice is used as living control orifice, while the twelfth one as blank control. (4) The RPMI-1640 liquid is utilized as diluent to 10-fold dilute stock solution of FCZ and ICZ. […] Ditto for other operations.

[3] = tested on: candida albicans; test: microbe, parasite or virus in culture; type: cell-based
Method in brief: (§1)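 Broth dilution in RPMI-1640 with PL-13 peptide diluted 10-fold from stock; inoculum 1-3×10^3 CFU/ml in the test. Strains activated at 60% humidity, 25 °C for aspergillus or 37 °C for candida; living and blank control wells included.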

[4] = tested on: candida tropicalis; test: microbe, parasite or virus in culture; type: cell-based
Method in brief: as §1

[5] = tested on: aspergillus fumigatus; test: microbe, parasite or virus in culture; type: cell-based
Method in brief: as §1

[6] = tested on: candida glabrata; test: microbe, parasite or virus in culture; type: cell-based
Method in brief: as §1

[7] = tested on: aspergillus flavous; test: microbe, parasite or virus in culture; type: cell-based
Method in brief: as §1

[8] = Circular dichroism (CD) spectroscopy, helical structure; type: physicochemical; settings: for 50% TFE % helix / Benign buffer % helix: relative to ellipticity (100%) of reference peptide in 50% TFE; for Benign buffer [θ]222 / 50% TFE [θ]222: mean residue molar ellipticity at 222 nm, 25° C.; for Benign buffer [θ]222: 100 mM KCl, 50 mM PO4, pH 7.0; for 50% TFE [θ]222: buffer containing 50% TFE
Procedure: The mean residue molar ellipticities of peptides are determined by circular dichroism (CD) spectroscopy, using a Jasco J-720 spectropolarimeter (Jasco, Easton, Md.), at 25° C. under benign conditions (50 mM KH2PO4/K2HPO4/100 mM KCl, pH7), as well as in the presence of an α-helix inducing solvent, 2,2,2-trifluoroethanol (TFE) (50 mM KH2PO4/K2HPO4/100 mM KCL, pH 7 buffer/50% TFE). A 10-fold dilution of a 500 μM stock solution of the peptide is loaded into a 0.02 cm fused silica cell and its mean residue molar ellipticity scanned from 190 to 250 nm. The values of mean residue molar ellipticities of the peptide at a wavelength of 222 nm are used to estimate the relative amount of α-helicity of the peptides.
To determine the secondary structure of peptides in different environments, circular dichroism (CD) spectra of the peptide analogs are measured under physiologically related pH and ionic strength (100 mM KCl, 50 mM aq. PO4, pH 7 referred to as benign conditions) and also in 50% TFE to mimic the hydrophobic environment of the membrane. CD spectra of the peptide analogs are measured under benign conditions (100 mM KCl, 50 mM KH2PO4/K2HPO4, pH 7, referred to as KP buffer) and also in 50% trifluoroethanol (TFE) to mimic the hydrophobic environment of the membrane. […] However, in the presence of 50% TFE, all three L-peptides are fully folded α-helical structures with similar molar ellipticities and helicity.
FIG. 2 illustrates graphical results of Circular dichroism (CD) spectra of peptides at pH 7.4 and 25° C., in 50 mM aq. PO4 containing 100 mM KCl, wherein KP buffer (50 mM KH2PO4, K2HPO4, 100 mM KCl, pH 7.4) mimics hydrophilic environment and KP buffer-TFE (1:1 [vol/vol]) mimics hydrophobic environment of cell membrane. The figure above represents the CD spectra of peptides in benign buffer without TFE, whilst the figure below represents CD spectra obtained in the presence of 50% TFE.

[9] = 06-12 (VREF) Vancomycin-resistant enterococci
[10] = JLC 30506 aspergillus fumigatus
[11] = JLC 30883 aspergillus fumigatus

Compound	MIC ([1]; Enterococcus faecium 06-1) [µM]	MIC [1, 9] [µM]	Minimal inhibitory concentration ([2]; JLC 30366 candida krusei) [µg/mL]	Minimal inhibitory concentration ([2]; JLC 30383 candida krusei) [µg/mL]	Minimal inhibitory concentration ([3]; JLC 33659 candida albicans) [µg/mL]	Minimal inhibitory concentration ([3]; JLC 33660 candida albicans) [µg/mL]	Minimal inhibitory concentration ([4]; JLC 31379 candida tropicalis) [µg/mL]	Minimal inhibitory concentration ([4]; JLC 31384 candida tropicalis) [µg/mL]	Minimal inhibitory concentration [5, 10] [µg/mL]	Minimal inhibitory concentration [5, 11] [µg/mL]	Minimal inhibitory concentration ([6]; JLC 30367 candida glabrata) [µg/mL]	Minimal inhibitory concentration ([6]; JLC 31512 candida glabrata) [µg/mL]	Minimal inhibitory concentration ([7]; JLC 30784 aspergillus flavous) [µg/mL]	Minimal inhibitory concentration ([7]; JLC 40437 aspergillus flavous) [µg/mL]	50% TFE % helix [8] [%]	Benign buffer % helix [8] [%]	Benign buffer [θ]222 [8] [deg · cm^2 · dmol^−1]	Minimal inhibitory concentration [3] [µg/mL]	Minimal inhibitory concentration [5] [µg/mL]	Minimal inhibitory concentration [7] [µg/mL]	other results
C[C@H]1COc2c(N3CCN(C)CC3)c(F)cc3c(=O)c(C(=O)O)cn1c23 [Levofloxacin, levofloxacin, reference compound]	2.40 (≈ 0.867 µg/mL)																				MIC ([1]; Enterococcus faecium, 06-12 (VREF) Vancomycin-resistant enterococci): 2.4 µM (≈ 0.867 µg/mL)
CC[C@@H](C)[C@@H](NC(=O)[C@@H](CCCCN)NC(=O)[C@@H](CO)NC(=O)[C@@H](Cc1ccccc1)NC(=O)[C@@H](CC(C)C)NC(=O)[C@@H](CCCCN)NC(=O)[C@@H](CCC(=O)O)NC(=O)[C@@H](CC(C)C)NC(=O)[C@@H](CCCNC(=N)N)NC(=O)[C@@H](CCCCN)NC(=O)[C@@H](Cc1ccccc1)NC(C)=O)C(=O)N[C@H](Cc1c[nH]c2ccccc12)C(=O)N[C@H](CC(N)=O)C(=O)N[C@H](Cc1c[nH]c2ccccc12)C(=O)N[C@H](CCCCN)C(N)=O [PL-17] (Ac-[dF][dK][dR][dL][dE][dK][dL][dF][dS][dK][dI][dW][dN][dW][dK]-NH2)	10.7 (≈ 22.1 µg/mL)	1.7 (≈ 3.51 µg/mL)	8 (≈ 3.88 µM)	8 (≈ 3.88 µM)	4 (≈ 1.94 µM)	4 (≈ 1.94 µM)	2 (≈ 0.969 µM)	2 (≈ 0.969 µM)	32 (≈ 15.5 µM)	32 (≈ 15.5 µM)	4 (≈ 1.94 µM)	8 (≈ 3.88 µM)	>64	>64							
CC(=O)N[C@H](Cc1ccccc1)C(=O)N[C@H](CCCCN)C(=O)N[C@H](CCCCN)C(=O)N[C@H](CC(C)C)C(=O)N[C@H](CCCCN)C(=O)N[C@H](CCCCN)C(=O)N[C@H](CC(C)C)C(=O)N[C@H](Cc1ccccc1)C(=O)N[C@H](CO)C(=O)N[C@H](CCCCN)C(=O)N[C@H](CC(C)C)C(=O)N[C@H](Cc1c[nH]c2ccccc12)C(=O)N[C@H](CC(N)=O)C(=O)N[C@H](Cc1c[nH]c2ccccc12)C(=O)N[C@H](CCCCN)C(N)=O [PL-18] (Ac-[dF][dK][dK][dL][dK][dK][dL][dF][dS][dK][dL][dW][dN][dW][dK]-NH2)	5.3 (≈ 10.8 µg/mL)	5.3 (≈ 10.8 µg/mL)													80.5	8.2	2300	4 (≈ 1.97 µM)	16 (≈ 7.86 µM)	>64	Minimal inhibitory concentration [2]: 4 µg/mL (≈ 1.97 µM); Minimal inhibitory concentration [4]: 2 µg/mL (≈ 0.983 µM); Minimal inhibitory concentration [6]: 4 µg/mL (≈ 1.97 µM)
CC(=O)N[C@H](Cc1ccccc1)C(=O)N[C@H](CCCCN)C(=O)N[C@H](CCCCN)C(=O)N[C@H](Cc1ccccc1)C(=O)N[C@H](CCCCN)C(=O)N[C@H](CCCCN)C(=O)N[C@H](CC(C)C)C(=O)N[C@H](CC(C)C)C(=O)N[C@H](CO)C(=O)N[C@H](CCCCN)C(=O)N[C@H](CC(C)C)C(=O)N[C@H](Cc1c[nH]c2ccccc12)C(=O)N[C@H](CC(N)=O)C(=O)N[C@H](Cc1c[nH]c2ccccc12)C(=O)N[C@H](CCCCN)C(N)=O [PL-43] (Ac-[dF][dK][dK][dF][dK][dK][dL][dL][dS][dK][dL][dW][dN][dW][dK]-NH2; N-terminus and C-terminus assumed)															96.3	14.0			64 (≈ 31.4 µM)	>64	Minimal inhibitory concentration [6]: 32 µg/mL (≈ 15.7 µM)
Ac-FKKLKKLFSKLWNWK-NH2 [PL-13]	5.3	5.3													80.7	8.3	−2350	8	32	>64	50% TFE [θ]222 [8]: −22750 deg · cm^2 · dmol^−1
Ac-FKRLEKLFSKIWNWK-NH2 [PL-12]	5.3	1.3	8	16	16	16	4	8	32	32	32	32	>64	>64	93.8	11.9	−3350				secondary structure by CD (in words) ([8]; KP buffer (benign)): only partially helical; 50% TFE [θ]222 [8]: −26450 deg · cm^2 · dmol^−1
